Literature values as cited in publication PMC5655430 (PLoS ONE, 2017).

How the values were obtained:
[1] = test system: glucagon-like peptide 1 receptor (Glp1r)
From the text: (§1) The complex nature of diabetic disorder necessitates use of combination therapies that will not only reduce hyperglycemia, but also correct other elements of diabetes complication, such as dyslipidemia. An increasingly common approach in peptide therapeutics focuses on hybrid peptides that can target two or even three receptors. […] Similar dual agonist peptides, with improved half-life and potency have been rep ...

glucagon receptor (Gcgr) = test system: glucagon receptor (Gcgr)
From the text: as §1

## Oxyntomodulin
[1]
  Binding and activation on Glp1r: weak binding and activation
Glucagon receptor (Gcgr)
  Binding and activation on Gcgr: weak binding and activation
